Experimental data taken from the NIST ThermoML archive (doi:10.1016/j.jct.2015.08.040).
± gives the expanded uncertainty stated by the source.

Experiments:
[1] = 100 kPa, Liquid; for speed of sound: Frequency=2 MHz, Linear variable-path acoustic interferometer; for mass density: Vibrating tube method
[2] = xn = mol fraction of the nth substance listed; conditions: 100 kPa, Liquid; for speed of sound: Frequency=2 MHz, Linear variable-path acoustic interferometer; for mass density: Vibrating tube method

CCCCOCCO [2-butoxyethan-1-ol]
[1]
Conditions	mass density [kg/m3]	speed of sound [m/s]
298.15 K	896.46 ± 4	1305 ± 8
303.15 K	892.22 ± 4	–
308.15 K	887.97 ± 4	1275 ± 7.8
313.15 K	883.7 ± 4	–
318.15 K	879.42 ± 4	–

CCOCCO [2-ethoxyethan-1-ol]
[1]
Conditions	mass density [kg/m3]	speed of sound [m/s]
298.15 K	925.36 ± 4	1301.4 ± 8
303.15 K	920.72 ± 4	–
308.15 K	916.11 ± 4	1274.8 ± 7.9
313.15 K	911.47 ± 4	–
318.15 K	906.9 ± 4	–

OCc1ccccc1 [benzenemethanol]
[1]
Conditions	mass density [kg/m3]	speed of sound [m/s]
298.15 K	1041.05 ± 4	1534.5 ± 9.3
303.15 K	1037.15 ± 4	–
308.15 K	1033.32 ± 4	1496 ± 9.1
313.15 K	1029.46 ± 4	–
318.15 K	1025.59 ± 4	–

COCCO [2-methoxyethan-1-ol] + OCc1ccccc1
[2], x2 = 0
Conditions	mass density [kg/m3]	speed of sound [m/s]
298.15 K	960.29 ± 4	1341.6 ± 8.2
303.15 K	955.84 ± 4	–
308.15 K	951.16 ± 4	1302 ± 7.9
313.15 K	946.49 ± 4	–
318.15 K	941.89 ± 4	–

OCc1ccccc1 [benzenemethanol] + CCCCOCCO
[2], x1 = 1
Conditions	mass density [kg/m3]	speed of sound [m/s]
298.15 K	1041.05 ± 4	1534.5 ± 9.3
303.15 K	1037.15 ± 4	–
308.15 K	1033.32 ± 4	1496 ± 9.1
313.15 K	1029.46 ± 4	–
318.15 K	1025.59 ± 4	–

COCCO [2-methoxyethan-1-ol]
[1]
Conditions	mass density [kg/m3]	speed of sound [m/s]
298.15 K	960.29 ± 4	1341.6 ± 8.2
303.15 K	955.84 ± 4	–
308.15 K	951.16 ± 4	1302 ± 7.9
313.15 K	946.49 ± 4	–
318.15 K	941.89 ± 4	–

OCc1ccccc1 [benzenemethanol] + CCOCCO
[2], x1 = 1
Conditions	mass density [kg/m3]	speed of sound [m/s]
298.15 K	1041.05 ± 4	1534.5 ± 9.3
303.15 K	1037.15 ± 4	–
308.15 K	1033.32 ± 4	1496 ± 9.1
313.15 K	1029.46 ± 4	–
318.15 K	1025.59 ± 4	–
